According to patent US20230203043A1, “NOVEL IMIDAZOPYRAZINE DERIVATIVES” (Hoffmann-La Roche Inc., priority 2020, published 2023):
Counter-ions that a name gives are not always drawn.

System: Acinetobacter baumannii ATCC17961
Experiment: Antimicrobial susceptibility testing: 90% growth inhibitory concentration (IC90) determination in Iso-Sensitest broth, OD600 growth
Assay type: cell-based
Settings: Acinetobacter baumannii, ATCC17961, 16 h, read-out: A. baumannii ATCC 17961 IC90 (uM), strain ATCC 17961, OD600 growth over 16 h
Summary of the method: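 Compounds were twofold serially diluted in DMSO across 10 points (e.g. 50 to 0.097 μM final) and inoculated at ~5×10^(5) CFU/ml. Plates incubated at 35±2° C, with OD600 read every 20 minutes over 16 h. IC90 was derived from growth inhibition during logarithmic growth.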

SMILES | IC90
O=C(CN1CCN(C(=O)c2ccc(Nc3nccn4c(-c5cn(CC(F)F)nc5C(F)(F)F)cnc34)cc2Cl)CC1)NC1CNC1 [Example 599, N-(azetidin-3-yl)-2-(4-(2-chloro-4-((3-(1-(2,2-difluoroethyl)-3-(trifluoromethyl)-1H-pyrazol-4-yl)imidazo[1,2-a]pyrazin-8-yl)amino)benzoyl)piperazin-1-yl)acetamide formate] | 0.522 µM
N#CCn1cc(-c2cnc3c(Nc4ccc(C(=O)N5CCN(CC(=O)NCCN)CC5)c(Cl)c4)nccn23)c(C(F)(F)F)n1 [Example 602, N-(2-aminoethyl)-2-(4-(2-chloro-4-((3-(1-(cyanomethyl)-3-(trifluoromethyl)-1H-pyrazol-4-yl)imidazo[1,2-a]pyrazin-8-yl)amino)benzoyl)piperazin-1-yl)acetamide formate] | 0.448 µM
N#CCn1cc(-c2cnc3c(Nc4ccc(C(=O)N5CCN(CC(=O)NCCCN)CC5)c(Cl)c4)nccn23)c(C(F)(F)F)n1 [Example 603, N-(3-aminopropyl)-2-(4-(2-chloro-4-((3-(1-(cyanomethyl)-3-(trifluoromethyl)-1H-pyrazol-4-yl)imidazo[1,2-a]pyrazin-8-yl)amino)benzoyl)piperazin-1-yl)acetamide formate] | 0.384 µM
N#CCn1cc(-c2cnc3c(Nc4ccc(C(=O)N5CCN(CC(=O)NC6CNC6)CC5)c(Cl)c4)nccn23)c(C(F)(F)F)n1 [Example 604, N-(azetidin-3-yl)-2-(4-(2-chloro-4-((3-(1-(cyanomethyl)-3-(trifluoromethyl)-1H-pyrazol-4-yl)imidazo[1,2-a]pyrazin-8-yl)amino)benzoyl)piperazin-1-yl)acetamide formate] | 0.602 µM
NCCCNC(=O)CN1CCN(C(=O)c2ccc(Nc3nccn4c(-c5cn(CC(F)F)nc5C(F)(F)F)cnc34)cc2Cl)CC1 [Example 606, N-(3-aminopropyl)-2-(4-(2-chloro-4-((3-(1-(2,2-difluoroethyl)-3-(trifluoromethyl)-1H-pyrazol-4-yl)imidazo[1,2-a]pyrazin-8-yl)amino)benzoyl)piperazin-1-yl)acetamide formate] | 0.303 µM
N#CCn1cc(-c2cnc3c(Nc4ccc(C(=O)N5CCN(CC(=O)N6CCNCC6)CC5)c(Cl)c4)nccn23)c(C(F)(F)F)n1 [Example 607, 2-(4-(8-((3-chloro-4-(4-(2-oxo-2-(piperazin-1-yl)ethyl)piperazine-1-carbonyl)phenyl)amino)imidazo[1,2-a]pyrazin-3-yl)-3-(trifluoromethyl)-1H-pyrazol-1-yl)acetonitrile formate] | 0.878 µM
O=C(CN1CCN(C(=O)c2ccc(Nc3nccn4c(-c5cn(CC(F)F)nc5C(F)(F)F)cnc34)cc2Cl)CC1)N1CCNCC1 [Example 608, 2-(4-(2-chloro-4-((3-(1-(2,2-difluoroethyl)-3-(trifluoromethyl)-1H-pyrazol-4-yl)imidazo[1,2-a]pyrazin-8-yl)amino)benzoyl)piperazin-1-yl)-1-(piperazin-1-yl) ethan-1-one formate] | 0.936 µM
CCc1cc(Nc2nccn3c(-c4cn(C5CCC5)nc4C(F)(F)F)cnc23)ccc1C(=O)NCCOCCCN [Example 609, N-(2-(3-aminopropoxy)ethyl)-4-((3-(1-cyclobutyl-3-(trifluoromethyl)-1H-pyrazol-4-yl)imidazo[1,2-a]pyrazin-8-yl)amino)-2-ethylbenzamide formate] | 0.086 µM
CCc1cc(Nc2nccn3c(-c4cn(CCF)nc4C(F)(F)F)cnc23)ccc1C(=O)NCCOCCCN [Example 610, N-(2-(3-aminopropoxy)ethyl)-2-ethyl-4-((3-(1-(2-fluoroethyl)-3-(trifluoromethyl)-1H-pyrazol-4-yl)imidazo [1,2-a]pyrazin-8-yl)amino)benzamide formate] | 0.099 µM
CCc1cc(Nc2nccn3c(-c4cn(CC(F)F)nc4C(F)(F)F)cnc23)ccc1C(=O)NCCNC(=O)CN [Example 611, N-(2-(2-aminoacetamido)ethyl)-4-((3-(1-(2,2-difluoroethyl)-3-(trifluoromethyl)-1H-pyrazol-4-yl)imidazo[1,2-a]pyrazin-8-yl)amino)-2-ethylbenzamide formate] | 0.11 µM
CCc1cc(Nc2nccn3c(-c4cn(CC#N)nc4C(F)(F)F)cnc23)ccc1C(=O)NCCOCCCN [Example 612, N-(2-(3-aminopropoxy)ethyl)-4-((3-(1-(cyanomethyl)-3-(trifluoromethyl)-1H-pyrazol-4-yl)imidazo[1,2-a]pyrazin-8-yl)amino)-2-ethylbenzamide formate] | 0.1 µM
CCc1cc(Nc2nccn3c(-c4c[nH]nc4C(F)(F)F)cnc23)ccc1C(=O)NCCOCCCN [Example 613, N-(2-(3-aminopropoxy)ethyl)-2-ethyl-4-((3-(3-(trifluoromethyl)-1H-pyrazol-4-yl)imidazo [1,2-a]pyrazin-8-yl)amino)benzamide formate] | 0.105 µM
CCc1cc(Nc2nccn3c(-c4cn(CC=C(C)C)nc4C(F)(F)F)cnc23)ccc1C(=O)NCCOCCN [Example 614, N-(2-(2-aminoethoxy)ethyl)-2-ethyl-4-((3-(1-(3-methylbut-2-en-1-yl)-3-(trifluoromethyl)-1H-pyrazol-4-yl)imidazo[1,2-a]pyrazin-8-yl)amino)benzamide formate] | 0.11 µM
CCc1cc(Nc2nccn3c(-c4cn(CC(F)F)nc4C(F)(F)F)cnc23)ccc1C(=O)NCCNC(=O)[C@H](C)N [Example 616, (S)-N-(2-(2-aminopropanamido)ethyl)-4-((3-(1-(2,2-difluoroethyl)-3-(trifluoromethyl)-1H-pyrazol-4-yl)imidazo[1,2-a]pyrazin-8-yl)amino)-2-ethylbenzamide formate] | 0.153 µM
CCc1cc(Nc2nccn3c(-c4cn(CC(F)F)nc4C(F)(F)F)cnc23)ccc1C(=O)NCCOCCCN [Example 618, N-(2-(3-aminopropoxy)ethyl)-4-((3-(1-(2,2-difluoroethyl)-3-(trifluoromethyl)-1H-pyrazol-4-yl)imidazo[1,2-a]pyrazin-8-yl)amino)-2-ethylbenzamide formate] | 0.129 µM
CCc1cc(Nc2nccn3c(-c4cn(C5CCC5)nc4C(F)(F)F)cnc23)ccc1C(=O)NCCOCCN1CCCC1 [Example 619, 4-((3-(1-cyclobutyl-3-(trifluoromethyl)-1H-pyrazol-4-yl)imidazo[1,2-a]pyrazin-8-yl)amino)-2-ethyl-N-(2-(2-(pyrrolidin-1-yl)ethoxy)ethyl)benzamide formate] | 0.131 µM
CCc1cc(Nc2nccn3c(-c4cn(CC#N)nc4C(F)(F)F)cnc23)ccc1C(=O)NCCNC(=O)CN [Example 620, N-(2-(2-aminoacetamido)ethyl)-4-((3-(1-(cyanomethyl)-3-(trifluoromethyl)-1H-pyrazol-4-yl)imidazo[1,2-a]pyrazin-8-yl)amino)-2-ethylbenzamide formate] | 0.139 µM
CCc1cc(Nc2nccn3c(-c4cn(CC#N)nc4C(F)(F)F)cnc23)ccc1C(=O)NCC1CC1N (stereo not shown) [Example 623, N-((2-aminocyclopropyl)methyl)-4-((3-(1-(cyanomethyl)-3-(trifluoromethyl)-1H-pyrazol-4-yl)imidazo[1,2-a]pyrazin-8-yl)amino)-2-ethylbenzamide formate] | 0.161 µM

Same assay, conditions: Acinetobacter baumannii, ATCC17961, 16 h, strain ATCC 17961, OD600 growth over 16 h, read-out: A. baumannii ATCC 17961 IC90

IC90 | SMILES
0.517 µM | O=C(CN1CCN(C(=O)c2ccc(Nc3nccn4c(-c5cn(CC(F)F)nc5C(F)(F)F)cnc34)cc2Cl)CC1)N[C@H]1CCNC1 [Example 600, (S)-2-(4-(2-chloro-4-((3-(1-(2,2-difluoroethyl)-3-(trifluoromethyl)-1H-pyrazol-4-yl)imidazo[1,2-a]pyrazin-8-yl)amino)benzoyl)piperazin-1-yl)-N-(pyrrolidin-3-yl) acetamide formate]
0.422 µM | O=C(CN1CCN(C(=O)c2ccc(Nc3nccn4c(-c5cn(CC(F)F)nc5C(F)(F)F)cnc34)cc2Cl)CC1)N[C@@H]1CCNC1 [Example 601, (R)-2-(4-(2-chloro-4-((3-(1-(2,2-difluoroethyl)-3-(trifluoromethyl)-1H-pyrazol-4-yl)imidazo [1,2-a]pyrazin-8-yl)amino)benzoyl)piperazin-1-yl)-N-(pyrrolidin-3-yl) acetamide formate]
0.496 µM | N#CCn1cc(-c2cnc3c(Nc4ccc(C(=O)N5CCN(CC(=O)N[C@H]6CCNC6)CC5)c(Cl)c4)nccn23)c(C(F)(F)F)n1 [Example 605, (S)-2-(4-(2-chloro-4-((3-(1-(cyanomethyl)-3-(trifluoromethyl)-1H-pyrazol-4-yl)imidazo[1,2-a]pyrazin-8-yl)amino)benzoyl)piperazin-1-yl)-N-(pyrrolidin-3-yl) acetamide formate]
0.122 µM | Cc1cc(Nc2nccn3c(-c4cn(CC(F)F)nc4C(F)(F)F)cnc23)cc(F)c1C(=O)NCCCCCCN [Example 615, N-(6-aminohexyl)-4-((3-(1-(2,2-difluoroethyl)-3-(trifluoromethyl)-1H-pyrazol-4-yl)imidazo[1,2-a]pyrazin-8-yl)amino)-2-fluoro-6-methylbenzamide]
0.125 µM | CCc1cc(Nc2nccn3c(-c4cn(CCF)nc4C(F)(F)F)cnc23)ccc1C(=O)NCCOCCN1CCCC1 [Example 617, 2-ethyl-4-((3-(1-(2-fluoroethyl)-3-(trifluoromethyl)-1H-pyrazol-4-yl)imidazo[1,2-a]pyrazin-8-yl)amino)-N-(2-(2-(pyrrolidin-1-yl)ethoxy)ethyl) benzamide formate]
0.144 µM | CCc1cc(Nc2nccn3c(-c4cn(CC(F)F)nc4C(F)(F)F)cnc23)ccc1C(=O)NCCOCCN1CCCC1 [Example 621, 4-((3-(1-(2,2-difluoroethyl)-3-(trifluoromethyl)-1H-pyrazol-4-yl)imidazo[1,2-a]pyrazin-8-yl)amino)-2-ethyl-N-(2-(2-(pyrrolidin-1-yl)ethoxy)ethyl) benzamide formate]
0.148 µM | CCc1cc(Nc2nccn3c(-c4cn(CCOC(F)(F)F)nc4C(F)(F)F)cnc23)ccc1C(=O)NCCOCCN [Example 622, N-(2-(2-aminoethoxy)ethyl)-2-ethyl-4-((3-(1-(2-(trifluoromethoxy)ethyl)-3-(trifluoromethyl)-1H-pyrazol-4-yl)imidazo[1,2-a]pyrazin-8-yl)amino)benzamide]
